Test results from US9556165B2 (priority 2012, dated 2017).
≈ marks a conversion by molar mass, not a printed value. Like-named read-outs stand apart in the source and are kept apart here.

Columns and labels:
Type in all cases: cell-based
E. coli ATCC25922 = assay: MIC determination, broth microdilution (CLSI); conditions: Escherichia coli, ATCC25922, strain 1
K. pneumoniae 60 = assay: MIC determination, broth microdilution (CLSI); conditions: Klebsiella pneumoniae, 60, strain 2
E. cloacae 34654 = assay: MIC determination, broth microdilution (CLSI); conditions: Enterobacter cloacae, 34654, strain 3
C. freundii K21/3034 = assay: MIC determination, broth microdilution (CLSI); conditions: Citrobacter freundii, K21/3034, strain 4
M. morganii 126/3048 = assay: MIC determination, broth microdilution (CLSI); conditions: Morganella morganii, 126/3048, strain 5
P. aeruginosa PAO1 = assay: MIC determination, broth microdilution (CLSI); conditions: Pseudomonas aeruginosa, PAO1, strain 6
[1] = tested on: P. aeruginosa 2297 (AmpC wt); assay: MIC determination, broth microdilution (CLSI); conditions: Pseudomonas aeruginosa, strain 7
A. baumannii ATCC15308 = assay: MIC determination, broth microdilution (CLSI); conditions: Acinetobacter baumannii, ATCC15308, strain 9
S. maltophilia ICB7569 = assay: MIC determination, broth microdilution (CLSI); conditions: Stenotrophomonas maltophilia, ICB7569, strain 10
S. aureus 133 = assay: MIC determination, broth microdilution (CLSI)
H. influenzae ATCC 49247 = assay: MIC determination, broth microdilution (CLSI); conditions: Haemophilus influenzae, ATCC49247, strain 12; broth microdilution; read-out: MIC strain 12 (H. influenzae ATCC 49247)
S. pneumoniae 113 = assay: MIC determination, broth microdilution (CLSI); conditions: Streptococcus pneumoniae, 113, strain 13; broth microdilution; read-out: MIC strain 13 (S. pneumoniae 113)
B. fragilis 6688 = assay: MIC determination, broth microdilution (CLSI); conditions: Bacteroides fragilis, 6688, strain 15; broth microdilution; read-out: MIC strain 15 (B. fragilis 6688)
E. coli J62 = assay: MIC determination, broth microdilution (CLSI); conditions: Escherichia coli, J62, strain 17; broth microdilution; read-out: MIC strain 17 (E. coli J62)
E. coli J62-TEM-3 = assay: MIC determination, broth microdilution (CLSI); conditions: Escherichia coli, J62TEM3, read-out: MIC strain 18 (E. coli J62-TEM-3), strain 18; broth microdilution
Bacteria = assay: MIC determination in combination with β-lactamase inhibitors (constant 4 μg/mL)
[2] = tested on: P. aeruginosa 2297-con (AmpC derepressed); assay: MIC determination, broth microdilution (CLSI); conditions: Pseudomonas aeruginosa, read-out: strain 8 MIC, strain 8
[3] = Staphylococcus aureus, 133, strain 14, broth microdilution, read-out: MIC strain 14 (S. aureus 133)

SMILES | MIC (E. coli ATCC25922) | MIC (K. pneumoniae 60) | MIC (E. cloacae 34654) | MIC (C. freundii K21/3034) | MIC (M. morganii 126/3048) | MIC (P. aeruginosa PAO1) | MIC [1] | MIC (A. baumannii ATCC15308) | MIC (S. maltophilia ICB7569) | MIC (S. aureus 133; Staphylococcus aureus, 133, strain 11, read-out: strain 11 MIC) | MIC (H. influenzae ATCC 49247) | MIC (S. pneumoniae 113) | MIC (B. fragilis 6688) | MIC (E. coli J62) | MIC (E. coli J62-TEM-3) | MIC strain 19 (E. coli J62-TEM-3 + 4 μg/mL clavulanic acid) (Bacteria) | MIC strain 20 (E. coli J62-TEM-3 + 4 μg/mL sulbactam) (Bacteria) | MIC strain 21 (E. coli J62-TEM-3 + 4 μg/mL tazobactam) (Bacteria) | MIC [2] | MIC (S. aureus 133; [3])
C[C@H]1[C@H](NC(=O)/C(=N\OCCOc2cc(C(=N)N)nn2C)c2csc(N)n2)C(=O)N1S(=O)(=O)O [Example 71, (2S,3S)-3-{[(2Z)-2-(2-Amino-1,3-thiazol-4-yl)-2-({2-[(3-carbamimidoyl-1-methyl-1H-pyrazol-5-yl)oxy]ethoxy}imino)acetyl]amino}-2-methyl-4-oxoazetidine-1-sulfonic acid] | 2 µg/mL (≈ 3.88 µM) | 1 µg/mL (≈ 1.94 µM) | 4 µg/mL (≈ 7.76 µM) | 1 µg/mL (≈ 1.94 µM) | 1 µg/mL (≈ 1.94 µM) | 16 µg/mL (≈ 31 µM) | 32 µg/mL (≈ 62.1 µM) | 4 µg/mL (≈ 7.76 µM) | 4 µg/mL (≈ 7.76 µM) | 0.25 µg/mL (≈ 0.485 µM) | 1 µg/mL (≈ 1.94 µM) | 0.5 µg/mL (≈ 0.97 µM) | 8 µg/mL (≈ 15.5 µM) | 8 µg/mL (≈ 15.5 µM) | 32 µg/mL (≈ 62.1 µM) | 2 µg/mL | 4 µg/mL | 4 µg/mL | – | –
CC1(C)[C@H](NC(=O)/C(=N\OC(COc2ccc(C(=N)N)cc2)C(N)=O)c2csc(N)n2)C(=O)N1OS(=O)(=O)O (stereo partly drawn) [Example 75, 2-({[(1Z)-1-(2-Amino-1,3-thiazol-4-yl)-2-{[(3S)-2,2-dimethyl-4-oxo-1-(sulfooxy)azetidin-3-yl]amino}-2-oxoethylidene]amino}oxy)-3-(4-carbamimidoylphenoxy)propanamide] | 0.25 µg/mL (≈ 0.428 µM) | 0.5 µg/mL (≈ 0.855 µM) | 0.5 µg/mL (≈ 0.855 µM) | 0.125 µg/mL (≈ 0.214 µM) | 0.25 µg/mL (≈ 0.428 µM) | 8 µg/mL (≈ 13.7 µM) | 16 µg/mL (≈ 27.4 µM) | 2 µg/mL (≈ 3.42 µM) | 4 µg/mL (≈ 6.84 µM) | – | – | – | – | 0.5 µg/mL (≈ 0.855 µM) | 1 µg/mL (≈ 1.71 µM) | 0.25 µg/mL | 0.5 µg/mL | 0.5 µg/mL | 8 µg/mL (≈ 13.7 µM) | 16 µg/mL (≈ 27.4 µM)
CC1(C)[C@H](NC(=O)/C(=N\OCCOc2ccc(C(=N)N3CCNCC3)cc2)c2csc(N)n2)C(=O)N1OS(=O)(=O)O [Example 80, (2Z)-2-(2-Amino-1,3-thiazol-4-yl)-N-[(3S)-2,2-dimethyl-4-oxo-1-(sulfooxy)azetidin-3-yl]-2-[(2-{4-[imino(piperazin-1-yl)methyl]phenoxy}ethoxy)imino]ethanamide] | 0.25 µg/mL (≈ 0.409 µM) | 0.5 µg/mL (≈ 0.819 µM) | 1 µg/mL (≈ 1.64 µM) | 0.25 µg/mL (≈ 0.409 µM) | – | 16 µg/mL (≈ 26.2 µM) | 16 µg/mL (≈ 26.2 µM) | 2 µg/mL (≈ 3.28 µM) | 32 µg/mL (≈ 52.4 µM) | – | – | – | – | 0.5 µg/mL (≈ 0.819 µM) | 16 µg/mL (≈ 26.2 µM) | 0.5 µg/mL | 0.5 µg/mL | 0.5 µg/mL | 8 µg/mL (≈ 13.1 µM) | 4 µg/mL (≈ 6.55 µM)
CC1(C)[C@H](NC(=O)/C(=N\O[C@@H](COc2ccc(C(=N)N[C@H]3CCNC3)cc2)C(=O)O)c2csc(N)n2)C(=O)N1OS(=O)(=O)O [Example 93] | ≤ 0.063 µg/mL | 0.125 µg/mL (≈ 0.191 µM) | 0.125 µg/mL (≈ 0.191 µM) | ≤ 0.063 µg/mL | – | 1 µg/mL (≈ 1.53 µM) | 1 µg/mL (≈ 1.53 µM) | 1 µg/mL (≈ 1.53 µM) | 4 µg/mL (≈ 6.11 µM) | – | – | – | – | 0.125 µg/mL (≈ 0.191 µM) | 4 µg/mL (≈ 6.11 µM) | 0.125 µg/mL | 0.125 µg/mL | 0.125 µg/mL | 1 µg/mL (≈ 1.53 µM) | 32 µg/mL (≈ 48.9 µM)
